From PubChem BioAssay AID2060500 (Molecular Pharmacology Branch, DTP, NCI, 2025)

System: 596521-263-R-J1-PDC complex spheroids, viability % of control
Assay: Anticancer human tumor 596521-263-R-J1-PDC patient-derived soft tissue sarcoma cell line growth inhibition [GQUAD]
Settings: for IC50: curve of first compound; for viability, T/C: stronger effect = lower value; active = viability on the fitted dose curve at most 10% of control; inactive = the rest
From the text: DNA G-quadruplex Stabilizer Agents in Combinations in Complex Spheroids
A high-throughput screen of multi-cell type tumor spheroids was designed to identify active combinations of DNA G-quadruplex stabilizer agents and targeted small molecules. Complex spheroids include a stromal component modeled by human endothelial cells (HUVEC) and fibroblasts modeled by human mesenchymal stem cells (MSCs). The concentration ranges selected for each drug and investigational agent were based upon clinically achievable concentrations if the clinical Cmax of the agent was known.
Compounds. The drugs and investigational agents: pidnarulex (CX-5461; NSC782164), APTO-253 (NSC789042), BRACO-19 (NSC847499), peposertib (NSC802822), ceralasertib (NSC780249), elimusertib (NSC800525), camonsertib (NSC841442), AZD-1390 (NSC803789), olaparib (NSC753686), talazoparib (NSC767125), ART-558 (NSC835418), sotorasib (NSC818433), MRTX-1133 (NSC836407), SN-38 (NSC673596), topotecan (NSC609699), etoposide (NSC141540), doxorubicin (NSC123127), gemcitabine (NSC613327), 5-fluorouracil (NSC19893), paclitaxel (NSC125973), vemurafenib (NSC761431), panobinostat (NSC761190), R-306465 (JNJ-16241199; NSC773264), adavosertib (NSC754352), TP-3654 (NSC805149), carboplatin (NSC241240), KSQ-4279 (NSC840948), and staurosporine (NSC755774) were obtained from the National Cancer Institute (NCI) Developmental Therapeutics Program Chemical Repository (34). The FDA-approved anticancer drug set is available from the NCI Developmental Therapeutics Program. […] The stock solutions were prepared in dimethyl sulfoxide (DMSO, Sigma-Aldrich, St. Louis, MO, cat. D2650) at 800-fold the tested concentration and stored at -70 degrees C prior to their use. All drugs and investigational agents were tested over a range starting from a high concentration at or near the clinical Cmax and decreasing in half-log increments. If the clinical Cmax for an agent had not been determined, the highest concentration tested was 10 microM.
2.3 Cell Culture. All cells were maintained in an incubator at 37 degrees C and 5% CO2 with 95% humidity. The PDC lines were cultured according to standard operating procedures established by the NCI PDMR. All PDCs were thawed and cultured in Matrigel-coated flasks prepared with a working solution of 1X Ham's F-12 nutrient mix, without supplementation (Invitrogen, cat. 11765054), 100 U/mL penicillin-streptomycin (Invitrogen, cat. 15140122), and 2.5% Matrigel (Corning Inc., cat. 354248) for the first three passages. The 857933-349-R-J2-PDC line was cultured in 6C/Colon 1B media, which includes advanced DMEM/F-12 (Thermo Fisher Scientific, cat. 12634028), 10 mM HEPES (Thermo Fisher Scientific, cat. 15630080), 1X GlutaMAX supplement (Thermo Fisher Scientific, cat. 35050061), 0.1 mg/mL primocin (InvivoGen, cat. ant-pm-2), 10% defined fetal bovine serum, heat inactivated (HyClone Laboratories Inc., cat. SH30070.03HI), 50% L-WRN conditioned media (ATCC, cat. CRL-3276), 1.25 mM N-Acetyl-L-cysteine (Sigma-Aldrich, cat. A9165), 10 mM nicotinamide (Sigma-Aldrich, cat. N0636), 1X B-27 supplement (Thermo Fisher Scientific, cat. 17504044), 1X N-2 supplement (Thermo Fisher Scientific, cat. 17502048), 10 microM Y-27632 dihydrochloride (Tocris Bioscience, cat. 1254), and 50 ng/mL human EGF recombinant protein (Thermo Fisher Scientific, cat. PHG0311). The 485176-168-R4-J1-PDC line was cultured in Panc media, which includes all 6C/Colon 1B media components plus 100 ng/mL human FGF-10 (Thermo Fisher Scientific, cat. 100-26), 500 nM SB-431542 (Selleckchem, cat. S1067), and gastrin (Tocris, cat. 3006).
[…]

[1] = second compound 0.0316 µM, first compound 0.0316 µM
[2] = second compound 0.0316 µM, first compound 0.1 µM
[3] = second compound 0.0316 µM, first compound 0.316 µM
[4] = second compound 0.0316 µM, first compound 1 µM
[5] = second compound 0.0316 µM, first compound 3.16 µM
[6] = second compound 0.0316 µM, first compound 10 µM
[7] = second compound 0.1 µM, first compound 0.0316 µM
[8] = second compound 0.1 µM, first compound 0.1 µM
[9] = second compound 0.1 µM, first compound 0.316 µM
[10] = second compound 0.1 µM, first compound 1 µM
[11] = second compound 0.1 µM, first compound 3.16 µM
[12] = second compound 0.1 µM, first compound 10 µM
[13] = second compound 0.316 µM, first compound 0.0316 µM
[14] = second compound 0.316 µM, first compound 0.1 µM
[15] = second compound 0.316 µM, first compound 0.316 µM
[16] = second compound 0.316 µM, first compound 1 µM
[17] = second compound 0.316 µM, first compound 3.16 µM
[18] = second compound 0.316 µM, first compound 10 µM
[19] = second compound 1 µM, first compound 0.0316 µM
[20] = second compound 1 µM, first compound 0.1 µM
[21] = second compound 1 µM, first compound 0.316 µM
[22] = second compound 1 µM, first compound 1 µM
[23] = second compound 1 µM, first compound 3.16 µM
[24] = second compound 1 µM, first compound 10 µM
[25] = second compound 3.16 µM, first compound 0.0316 µM
[26] = second compound 3.16 µM, first compound 0.1 µM
[27] = second compound 3.16 µM, first compound 0.316 µM
[28] = second compound 3.16 µM, first compound 1 µM
[29] = second compound 3.16 µM, first compound 3.16 µM
[30] = second compound 3.16 µM, first compound 10 µM
[31] = second compound 10 µM, first compound 0.0316 µM
[32] = second compound 10 µM, first compound 0.1 µM
[33] = second compound 10 µM, first compound 0.316 µM
[34] = second compound 10 µM, first compound 1 µM
[35] = second compound 10 µM, first compound 3.16 µM
[36] = second compound 10 µM, first compound 10 µM
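Note: spheroids exposed to drugs for 7 days before viability reading.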

C#Cc1c(F)ccc2cc(O)cc(-c3ncc4c(N5CC6CCC(C5)N6)nc(OCC56CCCN5CC(F)C6)nc4c3F)c12 (centres undefined) + Cc1cnc(CNC(=O)c2c(=O)c3ccc(N4CCCN(C)CC4)nc3n3c2sc2ccccc23)cn1
> 10 µM: IC50 (second compound 0.0316 µM) | IC50 (second compound 0.1 µM) | IC50 (second compound 0.316 µM) | IC50 (second compound 1 µM) | IC50 (second compound 3.16 µM)
inactive: viability, T/C [1] 93.2% | viability, T/C [2] 94.4% | viability, T/C [3] 101% | viability, T/C [4] 88% | viability, T/C [5] 98.5% | viability, T/C [6] 90.7% | viability, T/C [7] 92.9% | viability, T/C [8] 74.9% | viability, T/C [9] 76.7% | viability, T/C [10] 93.5% | viability, T/C [11] 90.8% | viability, T/C [12] 82.9% | viability, T/C [13] 72.5% | viability, T/C [14] 74.6% | viability, T/C [15] 70.4% | viability, T/C [16] 93.3% | viability, T/C [17] 91.8% | viability, T/C [18] 66.7% | viability, T/C [19] 60.7% | viability, T/C [20] 60.8% | viability, T/C [21] 61.4% | viability, T/C [22] 66.3% | viability, T/C [23] 67.4% | viability, T/C [24] 52.5% | viability, T/C [25] 56.4% | viability, T/C [26] 49.2% | viability, T/C [27] 49.8% | viability, T/C [28] 57% | viability, T/C [29] 50.9% | viability, T/C [30] 54% | viability, T/C [31] 36.3% | viability, T/C [32] 14.9% | viability, T/C [33] 39.6% | viability, T/C [34] 40.7% | viability, T/C [35] 36.9% | viability, T/C [36] 0.57%
< 0.0316 µM: IC50 (second compound 10 µM)

C=CC(=O)N1CCN(c2nc(=O)n(-c3c(C)ccnc3C(C)C)c3nc(-c4c(O)cccc4F)c(F)cc23)C(C)C1 (centres undefined) + Cc1cnc(CNC(=O)c2c(=O)c3ccc(N4CCCN(C)CC4)nc3n3c2sc2ccccc23)cn1
< 0.0316 µM: IC50 (second compound 10 µM)
> 10 µM: IC50 (second compound 0.0316 µM) | IC50 (second compound 0.1 µM) | IC50 (second compound 0.316 µM) | IC50 (second compound 1 µM) | IC50 (second compound 3.16 µM)
inactive: viability, T/C [1] 104% | viability, T/C [2] 101% | viability, T/C [3] 103% | viability, T/C [4] 112% | viability, T/C [5] 108% | viability, T/C [6] 75.8% | viability, T/C [7] 88.3% | viability, T/C [8] 86.1% | viability, T/C [9] 91.8% | viability, T/C [10] 107% | viability, T/C [11] 103% | viability, T/C [12] 77.6% | viability, T/C [13] 89.5% | viability, T/C [14] 85.1% | viability, T/C [15] 90.5% | viability, T/C [16] 81.1% | viability, T/C [17] 92.4% | viability, T/C [18] 69.1% | viability, T/C [19] 67.8% | viability, T/C [20] 64.8% | viability, T/C [21] 67% | viability, T/C [22] 71.2% | viability, T/C [23] 76.7% | viability, T/C [24] 63.2% | viability, T/C [25] 57.2% | viability, T/C [26] 56.5% | viability, T/C [27] 61.8% | viability, T/C [28] 60% | viability, T/C [29] 81.4% | viability, T/C [30] 61.8% | viability, T/C [31] 51.1% | viability, T/C [32] 30.9% | viability, T/C [33] 48.6% | viability, T/C [34] 51% | viability, T/C [35] 63.7% | viability, T/C [36] 39.5%
